Measurements reported in patent publication US4073892A, “N^2 -alkoxynaphthylsulfonyl-L-argininamides and the pharmaceutically acceptable salts thereof” (Mitsubishi Chemical Industries Limited, priority 1974, dated 1978).

The compounds below were run against T1, thrombin (Bos taurus, UniProt P00735) (assay: fibrinogen coagulation time (antithrombotic activity)). Details: bovine fibrinogen, thrombin solution 5 units/ml, borate saline buffer pH 7.4, 25° C; normal coagulation time 50-55 seconds.
T1 construct: purchased Mochida Pharmaceutical Co., Ltd
Type: biochemical
Procedure: Immediately after mixing, the reaction mixture was transferred from the ice bath to a bath maintained at 25° C. Coagulation times were taken as the period between the time of transference to the 25° C bath and the time of the first appearance of fibrin threads.
The term "concentration required to prolong the coagulation time by a factor of two" is the concentration of an active ingredient required to prolong the normal coagulation time 50-55 seconds to 100-110 seconds.

Structure (SMILES)	Concentration Required to Prolong The Coagulation Time By A Factor of Two [µM]
CCCCN(CC(=O)O)C(=O)[C@H](CCCNC(=N)N)NS(=O)(=O)c1cc(OC)c2cc(OC)ccc2c1 [Sample 25, N^2-(4,6-dimethoxy-2-naphthylsulfonyl)-L-arginyl-N-butylglycine]	2
COc1cc2ccc(S(=O)(=O)N[C@@H](CCCNC(=N)N)C(=O)N(CC(=O)O)CC(C)C)cc2cc1OC [Sample 5, N^2-(6,7-dimethoxy-2-naphthylsulfonyl)-L-arginyl-N-isobutylglycine]	2
CCCCN(CC(=O)O)C(=O)[C@H](CCCNC(=N)N)NS(=O)(=O)c1ccc2cc(OC)c(OC)cc2c1 [Sample 3, N^2-(6,7-dimethoxy-2-naphthylsulfonyl)-L-arginyl-N-butylglycine]	0.3
COc1cc2ccc(S(=O)(=O)N[C@@H](CCCNC(=N)N)C(=O)N(CC(=O)O)CC(C)OC)cc2cc1OC (stereo partly drawn) [Sample 55, N^2-(6,7-dimethoxy-2-naphthylsulfonyl)-L-arginyl-N-(2-methoxypropyl)glycine]	6.5
COCCN(CC(=O)Oc1cccc(C)c1)C(=O)[C@H](CCCNC(=N)N)NS(=O)(=O)c1ccc2cc(OC)c(OC)cc2c1 [Sample 52, N^2-(6,7-dimethoxy-2-naphthylsulfonyl)-L-arginyl-N-(2-methoxyethyl) glycine m-tolyl ester]	20
CCOCCN(CCC(=O)O)C(=O)[C@H](CCCNC(=N)N)NS(=O)(=O)c1ccc2cc(OC)c(OC)cc2c1 [Sample 21, N^2-(6,7-dimethoxy-2-naphthylsulfonyl)-L-arginyl-N-(2-ethoxyethyl)-β-alanine]	4
COCCN(CC(=O)O)C(=O)[C@H](CCCNC(=N)N)NS(=O)(=O)c1cc(OC)c2cc(OC)ccc2c1 [Sample 23, N^2-(4,6-dimethoxy-2-naphthylsulfonyl)-L-arginyl-N-(2-methoxyethyl)glycine]	4
CCCCN(CC(=O)O)C(=O)[C@H](CCCNC(=N)N)NS(=O)(=O)c1ccc2cc(OC)ccc2c1 [Sample 31, N^2-(6-methoxy-2-naphthylsulfonyl)-L-arginyl-N-butylglycine]	0.5
COc1ccc2ccc(S(=O)(=O)N[C@@H](CCCNC(=N)N)C(=O)N(CC[S+](C)[O-])CC(=O)O)cc2c1 (stereo partly drawn) [Sample 57, N^2-(7-methoxy-2-naphthylsulfonyl)-L-arginyl-N-(2-methylsulfinylethyl)glycine]	6.5
CCOc1cc2ccc(S(=O)(=O)N[C@@H](CCCNC(=N)N)C(=O)N(CCOC)CC(=O)O)cc2cc1OCC [Sample 27, N^2-(6,7-diethoxy-2-naphthylsulfonyl)-L-arginyl-N-(2-methoxyethyl) glycine]	15
CCCCCCCCOC(=O)CN(CCOC)C(=O)[C@H](CCCNC(=N)N)NS(=O)(=O)c1ccc2cc(OC)c(OC)cc2c1 [Sample 50, N^2-(6,7-dimethoxy-2-naphthylsulfonyl)-L-arginyl-N-(2-methoxyethyl)glycine octyl ester]	2
CCOC(=O)CCN(CC(=O)O)C(=O)[C@H](CCCNC(=N)N)NS(=O)(=O)c1ccc2cc(OC)c(OC)cc2c1 [Sample 49, N^2-(6,7-dimethoxy-2-naphthylsulfonyl)-L-arginyl-N-(2-ethoxycarbonylethyl)glycine]	6.5
COCCN(CC(=O)O)C(=O)[C@H](CCCNC(=N)N)NS(=O)(=O)c1ccc2ccc(OC)cc2c1 [Sample 35, N^2-(7-methoxy-2-naphthylsulfonyl)-L-arginyl-N-(2-methoxyethyl)glycine]	0.5
COCCN(CCC(=O)O)C(=O)[C@H](CCCNC(=N)N)NS(=O)(=O)c1ccc2cc(OC)c(OC)cc2c1 [Sample 15, N^2-(6,7-dimethoxy-2-naphthylsulfonyl)-L-arginyl-N-(2-methoxyehtyl)-β-alanine]	2.5
COCCN(CC(=O)O)C(=O)[C@H](CCCNC(=N)N)NS(=O)(=O)c1cccc2c(OC)cccc12 [Sample 43, N^2-(5-methoxy-1-naphthylsulfonyl)-L-arginyl-N-(2-methoxyethyl) glycine]	2.5
CCCN(CC(=O)O)C(=O)[C@H](CCCNC(=N)N)NS(=O)(=O)c1ccc2cc(OC)c(OC)cc2c1 [Sample 1, N^2-(6,7-dimethoxy-2-naphthylsulfonyl)-L-arginyl-N-propylglycine]	8
COCCN(CC(=O)O)C(=O)[C@H](CCCNC(=N)N)NS(=O)(=O)c1ccc2cc(OC)c(OC)cc2c1 [Sample 13, N^2-(6,7-dimethoxy-2-naphthylsulfonyl)-L-arginyl-N-(2-methoxyethyl)glycine]	0.5
CCCCCCN(CC(=O)O)C(=O)[C@H](CCCNC(=N)N)NS(=O)(=O)c1ccc2cc(OC)c(OC)cc2c1 [Sample 9, N^2-(6,7-dimethoxy-2-naphthylsulfonyl)-L-arginyl-N-hexylglycine]	1.5
CCCC(C(=O)O)N(CC(=O)O)C(=O)[C@H](CCCNC(=N)N)NS(=O)(=O)c1ccc2cc(OC)c(OC)cc2c1 (stereo partly drawn) [Sample 54, N^2-(6,7-dimethoxy-2-naphthylsulfonyl)-L-arginyl-N-(1-carboxybutyl)glycine]	55
COCCCN(CC(=O)O)S(=O)(=O)c1ccc2cc(OC)c(OC)cc2c1 [Sample 19, N^2-(6,7-dimethoxy-2-naphthylsulfonyl)-N-(3-methoxypropyl)glycine]	5
COCCN(CCCC(=O)O)C(=O)[C@H](CCCNC(=N)N)NS(=O)(=O)c1ccc2cc(OC)c(OC)cc2c1 [Sample 17, N^2-(6,7-dimethoxy-2-naphthylsulfonyl)-N-(2-methoxyethyl)-N-(3-carboxypropyl)-L-argininamide]	2.5
CCCCN(CC(=O)O)C(=O)[C@H](CCCNC(=N)N)NS(=O)(=O)c1ccc2ccc(OC)cc2c1 [Sample 39, N^2-(7-methoxy-2-naphthylsulfonyl)-L-arginyl-N-butylglycine]	0.5
CCCCCN(CC(=O)O)C(=O)[C@H](CCCNC(=N)N)NS(=O)(=O)c1ccc2cc(OC)c(OC)cc2c1 [Sample 7, N^2-(6,7-dimethoxy-2-naphthylsulfonyl)-L-arginyl-N-pentylglycine]	5
CCOC(=O)CN(CCOC)C(=O)[C@H](CCCNC(=N)N)NS(=O)(=O)c1ccc2cc(OC)c(OC)cc2c1 [Sample 14, N^2-(6,7-dimethoxy-2-naphthylsulfonyl)-L-arginyl-N-(2-methoxyethyl)glycine ethyl ester]	1.5
COCCN(CC(=O)Oc1ccc2c(c1)CCC2)C(=O)[C@H](CCCNC(=N)N)NS(=O)(=O)c1ccc2cc(OC)c(OC)cc2c1 [Sample 53, N^2-(6,7-dimethoxy-2-naphthylsulfonyl)-L-arginyl-N-(2-methoxyethyl) glycine 5-indanyl ester]	30

Each compound was assayed on mice (male, 20 g) (assay: acute toxicity (LD50), intraperitoneal administration in mice). Details: not given.
Type: in vivo
From the text: Representative LD50 values, for example, for N^2 -(6, 7-dimethoxy-2-naphthylsulfonyl)-L-arginyl-N-(2-methoxyethyl)glycine, N^2 -(6, 7-dimethoxy-2-naphthylsulfonyl)-L-arginyl-N-(2-ethoxyethyl)-β-alanine, N^2 -(4, 6-dimethoxy-2-naphthylsulfonyl)-L-arginyl-N-(2-methoxyethyl)glycine, N^2 -(7-methoxy-2-naphthylsulfonyl)-L-arginyl-N-(2-methoxyethyl)glycine are 1,900-2,400, 660-1,000, 660-1,000, 2,000 milligrams per kilogram, respectively.

Structure (SMILES)	acute toxicity value (LD50)
CCOCCN(CCC(=O)O)C(=O)[C@H](CCCNC(=N)N)NS(=O)(=O)c1ccc2cc(OC)c(OC)cc2c1 [Sample 21, N^2-(6,7-dimethoxy-2-naphthylsulfonyl)-L-arginyl-N-(2-ethoxyethyl)-β-alanine]	660-1,000 milligrams per kilogram
COCCN(CC(=O)O)C(=O)[C@H](CCCNC(=N)N)NS(=O)(=O)c1cc(OC)c2cc(OC)ccc2c1 [Sample 23, N^2-(4,6-dimethoxy-2-naphthylsulfonyl)-L-arginyl-N-(2-methoxyethyl)glycine]	660-1,000 milligrams per kilogram
COCCN(CC(=O)O)C(=O)[C@H](CCCNC(=N)N)NS(=O)(=O)c1ccc2ccc(OC)cc2c1 [Sample 35, N^2-(7-methoxy-2-naphthylsulfonyl)-L-arginyl-N-(2-methoxyethyl)glycine]	2,000 milligrams per kilogram
COCCN(CC(=O)O)C(=O)[C@H](CCCNC(=N)N)NS(=O)(=O)c1ccc2cc(OC)c(OC)cc2c1 [Sample 13, N^2-(6,7-dimethoxy-2-naphthylsulfonyl)-L-arginyl-N-(2-methoxyethyl)glycine]	1,900-2,400 milligrams per kilogram
